Experimental data from patent US12410153B2, “Compounds, compositions and methods” (Avalo Therapeutics, Inc., priority 2014, dated 2025).
pKi: −log10 of the molar value.

Columns and labels:
[1] = Polymorph stability (slurry and heating, XRPD); assay type: physicochemical; details: between room temperature and 121° C.
Description: Crystalline Form II of Compound (I) was characterized using X-ray powder diffraction (XRPD) (FIG. 1A). The XRPD pattern corresponds to an anhydrous form denoted as Form II, which is highly crystalline. In addition to Form II, Compound (I) can exist as another anhydrous polymorph, denoted as Form I. The XRPD patterns of these phases are shown in FIG. 1B. A slurry experiment was performed at room temperature by adding approximately equal proportions of the two anhydrous phases to methyl-tert-butyl ether.

[2] = biological target: T1, NMDA-GluN2B receptors, human temporal cortex homogenate (Homo sapiens, UniProt Q05586+Q13224); test: Radioligand binding, human temporal cortex homogenate; details: geometric mean
T1 construct: temporal cortex homogenate (human); from tissue; host or cells: human temporal cortex homogenate
T1 sequence (Q13224 27-1484, other chains not shown): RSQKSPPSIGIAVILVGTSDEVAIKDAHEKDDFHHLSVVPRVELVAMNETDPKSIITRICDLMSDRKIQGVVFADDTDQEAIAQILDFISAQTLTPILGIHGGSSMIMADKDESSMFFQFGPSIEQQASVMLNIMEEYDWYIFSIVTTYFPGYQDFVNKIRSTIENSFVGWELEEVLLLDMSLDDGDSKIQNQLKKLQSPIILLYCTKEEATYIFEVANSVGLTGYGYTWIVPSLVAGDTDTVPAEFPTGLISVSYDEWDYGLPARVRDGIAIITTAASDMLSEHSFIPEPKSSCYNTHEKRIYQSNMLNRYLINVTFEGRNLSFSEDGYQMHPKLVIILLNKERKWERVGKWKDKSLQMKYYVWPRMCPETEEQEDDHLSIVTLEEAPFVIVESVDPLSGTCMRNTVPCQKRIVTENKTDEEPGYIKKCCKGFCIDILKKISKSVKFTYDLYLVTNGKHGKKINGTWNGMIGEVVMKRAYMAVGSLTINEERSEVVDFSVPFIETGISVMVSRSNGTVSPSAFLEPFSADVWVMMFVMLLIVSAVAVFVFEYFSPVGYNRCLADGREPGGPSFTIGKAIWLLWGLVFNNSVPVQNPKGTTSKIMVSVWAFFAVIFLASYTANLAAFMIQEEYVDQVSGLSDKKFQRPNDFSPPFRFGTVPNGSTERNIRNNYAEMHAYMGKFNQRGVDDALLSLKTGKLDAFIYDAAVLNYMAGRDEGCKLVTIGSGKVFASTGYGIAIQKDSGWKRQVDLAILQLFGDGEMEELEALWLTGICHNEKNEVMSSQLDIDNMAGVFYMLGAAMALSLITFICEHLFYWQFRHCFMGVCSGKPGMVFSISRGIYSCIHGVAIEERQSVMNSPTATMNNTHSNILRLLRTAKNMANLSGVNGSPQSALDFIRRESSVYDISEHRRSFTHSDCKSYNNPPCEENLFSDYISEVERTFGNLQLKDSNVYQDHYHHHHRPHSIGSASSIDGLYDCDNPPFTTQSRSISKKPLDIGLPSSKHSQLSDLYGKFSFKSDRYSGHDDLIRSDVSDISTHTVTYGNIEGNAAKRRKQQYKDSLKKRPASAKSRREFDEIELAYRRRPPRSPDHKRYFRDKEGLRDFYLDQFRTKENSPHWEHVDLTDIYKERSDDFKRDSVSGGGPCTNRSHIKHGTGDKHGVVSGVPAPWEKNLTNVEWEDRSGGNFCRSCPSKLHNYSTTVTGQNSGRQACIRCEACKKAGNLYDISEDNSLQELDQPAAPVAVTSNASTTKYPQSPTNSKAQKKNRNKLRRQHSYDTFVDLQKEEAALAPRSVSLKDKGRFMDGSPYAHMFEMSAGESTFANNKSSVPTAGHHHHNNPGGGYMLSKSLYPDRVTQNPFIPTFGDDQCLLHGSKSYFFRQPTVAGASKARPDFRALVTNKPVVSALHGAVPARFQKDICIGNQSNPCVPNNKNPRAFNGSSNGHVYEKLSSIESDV
Description: (§1) Radioligand binding assays were performed at room temperature (or 37° C.) in 96-well microtiter plates with a final assay volume of […] in 20 mM HEPES buffer (pH 7.4) containing 150 mM NaCl. […] Nonspecific binding was assessed using N-(3-chlorobenzyl)-4-iodobenzimidamide (final concentration, 10 μM), and total binding was measured by addition of DMSO (final concentration, 2%). L(tk−) cell membranes expressing human GluN1a/GluN2B receptors (final concentration, 40 pM) and [^3H]-[(E)-N1-(2-methoxybenzyl)-cinnamamidine] (final concentration, 1 nM) were added to all wells of the microtiter plate. After 3 h (24 h or 48 h) of incubation at room temperature (or 37° C.), samples were filtered through Packard GF/B filters (presoaked in 0.05% polyethylenimine [PEI; Sigma P-3143]) and washed 10 times with 1 mL of cold 20 mM HEPES buffer per wash. After vacuum drying of the filter plates, 50 μL of Packard Microscint-20 was added and the bound radioactivity determined in a Packard TopCount.
(§2) Analogous binding experiments, to those described above for the cloned human receptor expressed in L(tk−) cells, were also performed using whole brain homogenate (rat), frontal cortex homogenate (dog and rhesus monkey), and temporal cortex homogenate (human).

[3] = biological target: T2, NMDA-GluN2B receptors, dog frontal cortex homogenate (Canis lupus familiaris, UniProt Q5R1P0+Q5R1P3); test: Radioligand binding, dog frontal cortex homogenate; details: geometric mean
T2 construct: frontal cortex homogenate (dog and rhesus monkey); from tissue; host or cells: dog frontal cortex homogenate
T2 sequence (Q5R1P3 27-1485, other chains not shown): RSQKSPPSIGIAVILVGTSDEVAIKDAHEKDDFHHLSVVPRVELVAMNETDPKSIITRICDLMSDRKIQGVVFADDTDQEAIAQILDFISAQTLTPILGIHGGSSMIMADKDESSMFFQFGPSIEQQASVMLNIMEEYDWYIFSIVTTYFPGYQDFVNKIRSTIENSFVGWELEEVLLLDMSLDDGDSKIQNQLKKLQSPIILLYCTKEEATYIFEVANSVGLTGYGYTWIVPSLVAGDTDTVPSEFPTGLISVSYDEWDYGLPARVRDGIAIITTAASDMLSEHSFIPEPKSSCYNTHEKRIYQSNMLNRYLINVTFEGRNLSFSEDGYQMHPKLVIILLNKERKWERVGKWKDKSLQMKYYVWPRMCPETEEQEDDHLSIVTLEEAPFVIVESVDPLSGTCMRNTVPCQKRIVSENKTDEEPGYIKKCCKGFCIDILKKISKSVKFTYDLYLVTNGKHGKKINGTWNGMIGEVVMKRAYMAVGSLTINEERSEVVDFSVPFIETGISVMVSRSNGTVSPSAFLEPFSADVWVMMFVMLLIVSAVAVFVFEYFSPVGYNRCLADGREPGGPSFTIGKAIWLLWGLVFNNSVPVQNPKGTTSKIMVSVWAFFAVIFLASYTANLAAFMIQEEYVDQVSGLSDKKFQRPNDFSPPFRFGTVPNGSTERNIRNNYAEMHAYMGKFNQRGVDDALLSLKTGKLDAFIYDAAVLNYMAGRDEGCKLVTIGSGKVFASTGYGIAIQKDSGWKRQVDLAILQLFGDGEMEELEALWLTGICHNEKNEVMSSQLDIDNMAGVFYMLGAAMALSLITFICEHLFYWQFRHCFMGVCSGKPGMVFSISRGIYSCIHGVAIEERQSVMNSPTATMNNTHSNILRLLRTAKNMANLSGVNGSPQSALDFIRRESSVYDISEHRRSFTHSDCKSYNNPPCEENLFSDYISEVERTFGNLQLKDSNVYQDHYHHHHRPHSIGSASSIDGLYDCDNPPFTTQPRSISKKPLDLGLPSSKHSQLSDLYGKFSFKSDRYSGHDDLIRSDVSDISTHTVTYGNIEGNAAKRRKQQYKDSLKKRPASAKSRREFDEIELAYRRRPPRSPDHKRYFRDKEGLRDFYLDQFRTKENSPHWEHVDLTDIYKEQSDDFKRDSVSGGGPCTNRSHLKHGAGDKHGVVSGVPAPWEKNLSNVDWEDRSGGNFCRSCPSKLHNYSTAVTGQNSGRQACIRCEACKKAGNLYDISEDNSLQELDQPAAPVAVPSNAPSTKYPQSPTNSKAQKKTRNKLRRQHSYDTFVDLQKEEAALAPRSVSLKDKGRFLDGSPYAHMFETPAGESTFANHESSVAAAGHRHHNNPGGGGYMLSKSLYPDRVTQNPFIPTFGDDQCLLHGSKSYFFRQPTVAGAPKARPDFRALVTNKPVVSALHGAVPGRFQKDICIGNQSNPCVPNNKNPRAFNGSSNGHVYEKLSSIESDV
Description: as §1, §2

[4] = Single-dose pharmacokinetics in rats (oral and IV); assay type: in vivo; details: male, Sprague-Dawley, rat, plasma
Description: Male Sprague-Dawley rats (N=8; N=4 oral and N=4 intravenous [IV]) weighing approximately 250-280 g and male rhesus monkeys (N=4, crossover) weighing 6.0-8.8 kg were used for the PK studies. In rats, the IV dose of crystalline Form II of Compound (I) at 2 mg/kg (0.4 mL/kg) was administered as a bolus and the oral dose was administered by gavage at 15 mg/kg (5 mL/kg). In monkeys, the IV dose of Form II at 2 mg/kg (0.1 mL/kg) was administered as a slow bolus and the oral dose was administered via nasogastric tube at 15 mg/kg (5 mL/kg). Blood samples were serially collected pre-dose, and at 0.083 (IV only), 0.25, 0.50, 1, 2, 4, 6, 8, 10, 24, 48, 72, and 96 h post-dose. The concentrations of Form II in rat and monkey plasma were determined by LC/MS/MS analysis in the positive ion mode using a heated nebulizer interface. The lower limit of quantitation was 2.5 ng/mL (approximately 0.00697 μM).

Sprague-Dawley rats = test: Locomotor assay; assay type: in vivo, rat
Description: To confirm that the effect of Form II in the forced swim test was not due to a general increase in activity levels, rats were subjected to a locomotor assay following oral Form II administration. Adult male Sprague-Dawley rats (N=42) were randomly assigned across the treatment groups (vehicle or Compound (I) at 0.1, 0.3, 1, 3, 10, and 30 mg/kg; N=6/group). Locomotor activity was assessed during the light cycle in photocell-monitored cages (Hamilton Kinder, San Diego, CA). Each cage consisted of a standard plastic rat cage (24×45.5 cm) surrounded by a stainless steel frame. Infrared photocell beams were located across the long axis of the frame to measure the ambulatory distance traveled. A second set of beams was placed above the floor and was used to measure rearing activity. Photocell beam interruptions were recorded by a computer system. Filter tops were placed on top of the test enclosures during testing. Rats were administered either vehicle or test compound via oral gavage twice on Day 1 (approximately 24 h before the test and prior to dark cycle) and once on Day 2 (45 min prior to placing in the locomotor cages for a 60-min test). Locomotor activity was captured in 5-min bins.

rats = test: Respiratory effects in male rats, single oral doses; assay type: in vivo, rat
Description: (§3) Respiratory effects were investigated in rats and dogs. […] Mean Form II plasma concentration was approximately 30 μM (10600 ng/mL) at the end of infusion and approximately 4 μM (1250 ng/mL) at 60 min post-infusion.

[5] = Respiratory effects in anesthetized dogs, 5-min IV infusion; assay type: in vivo, dog; details: dog, plasma, 3 mg/kg
Description: as §3

dogs = test: as above; assay type: in vivo, dog; details: 3 mg/kg, monitored 60 min
Description: as §3

in vivo = details: both, Sprague-Dawley, rat, po
[6] = biological target: GluN1a/GluN2B human receptors (Homo sapiens, UniProt Q05586+Q13224); test: Radioligand binding, L(tk−) cell membranes expressing human GluN1a/GluN2B; parameters: expressed in transfected cells; host or cells: L(tk−) cells (mouse fibroblasts), dexamethasone-inducible expression; details: geometric mean
Chain of GluN1a/GluN2B human receptors (Q13224 27-1484, other chains not shown): as the sequence (Q13224 27-1484, other chains not shown) above

Compound: Cc1ccc(COC(=O)N2CC[C@H](CNc3ncccn3)[C@H](F)C2)cc1 [Form II, 4-methylbenzyl (3S, 4R)-3-fluoro-4-[(pyrimidin-2-ylamino)methyl] piperidine-1-carboxylate]
- thermodynamic stability of polymorph [1]: thermodynamically stable form
- pKi ([2]; 37° C.): 8.09
- pKi ([2]; room temp.): 8.51
- pKi ([3]; 37° C.): 7.89
- pKi ([3]; room temp.): 8.49
- bioavailability ([4]; 15 mg/kg, dose-normalized AUC0-∞ after IV and PO, non-crossover): 60%
- AUC(0-inf) ([4]; IV 2 mg/kg, mean (S.D.)): 3.31 µM·h
- half-life ([4]; IV 2 mg/kg, mean (S.D.)): 102 min
- clearance ([4]; IV 2 mg/kg, mean (S.D.), read-out: CLp): 28.4 mL/min/kg
- Vd ([4]; IV 2 mg/kg, mean (S.D.), read-out: Vdss): 3.1 L/kg
- AUC(0-inf) ([4]; PO 15 mg/kg, mean (S.D.)): 14.9 µM·h
- Cmax ([4]; PO 15 mg/kg, mean (S.D.)): 5.9 µM
- locomotor effects (Sprague-Dawley rats; 0.1 and 0.3 mg/kg dose groups): No locomotor effects
- ED50 (Sprague-Dawley rats; Rattus norvegicus, read-out: ED50 for increase in locomotor activity): ~2 mg/kg
- distance traveled (Sprague-Dawley rats; first 5 min of testing, 1, 3, 10, and 30 mg/kg vs vehicle): significantly increased
- RO corresponding to locomotor ED50 (Sprague-Dawley rats; rat, in vivo): ~75%
- total distance traveled (Sprague-Dawley rats; summed over 60-min test, 1, 3, 10, and 30 mg/kg vs vehicle): significantly increased
- respiratory function (respiratory rate, tidal volume, minute ventilation, PenH) (rats; 15, 75, and 225 mg/kg oral): respiratory stimulation
- respiratory function at end of 6-h monitoring period (rats; ≥75 mg/kg oral): remained altered
- concentration at 60 min ([5]; read-out: mean plasma concentration at 60 min post-infusion): ~4 µM
- concentration at 5 min ([5]; read-out: mean plasma concentration at the end of infusion): ~30 µM
- respiratory parameters and blood pH, pCO2, pO2 (dogs): did not affect
- Cmax (in vivo; 10 mg/kg): ~4 µM
- Cmax (in vivo; 30 mg/kg): ~14 µM
- Cmax (in vivo; 100 mg/kg): ~26 µM
- pKi ([6]; 4° C.): 8.74
- pKi ([6]; 37° C.): 7.51
- pKi ([6]; room temp.): 8.31
